Measurements as given in paper PMC8238920, “Functional inhibition of lactate dehydrogenase suppresses pancreatic adenocarcinoma progression” (Clinical and Translational Medicine, 2021).

Molecular target: T1, lactate dehydrogenase A (LDHA) (Homo sapiens, UniProt P00338)
T1 construct: his-tag LDHA human recombinant protein (Cat. No. 71081, BPS Bioscience)
Experiment: SPR (Biacore T200, LDHA immobilized on CM5 chip, berberine […])
Assay type: binding

`COc1ccc2cc3[n+](cc2c1OC)CCc1cc2c(cc1-3)OCO2` [BBR, berberine] showed a Kd of 4.59 µM.
